The results in this text go back to the supplement of paper PMC11208160.

The nature of this data set: recombinant barcode read abundance after kanamycin selection (control-corrected) (log10(CPM+1)); higher = more efficient recombination; sequences stand for … in AGTGCAGAGAAAATCGGCCAGTTTTCTCTGCCTGCAGTCCGCATGCCGT…ATTTATGCAGCGGACTGCCTTTCTCCCAAAGTGATAAACCGGACAGTATCATGGACCGGTTTTCCCGGTAATCCGTATTTGCAAGGTTGGTTTCACT; site = the 11-nt target. As for the experimental part:
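Same pooled E. coli target screen (IS621 bridge recombinase, kanamycin selection, control-corrected CPM, mean of 2 biological replicates). Here the two core-binding nucleotides of the LTG and RTG of the bridge RNA target-binding loop are mutated. Target and donor CT cores are held constant, and the other 9 guide positions match the target. The target is read from the library oligo sequence. Molecule = full bridge RNA written as DNA: nt 1-80 from the library oligo, rest WT scaffold.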

As for “AGTCTTACGTGGGTTCTAACCTGTTGCCACG [AGTCTTACTTG_LTGcore_CG_RTGcore_CG] (site AGTCTTACTTG) (LTG core: CG, RTG core: CG)”, the “recombinant barcode read abundance (log10)” value came out at 0.213.
The value for “AGTCTTACTTGGGTTCTAACCTGTTGCCAAG [AGTCTTACTTG_LTGcore_CT_RTGcore_CT] (site AGTCTTACTTG) (LTG core: CT, RTG core: CT)” was 0.0171.
Turning to “AGTCTTACTTGGGTTCTAACCTGTTGCCAAT [AGTCTTACTTG_LTGcore_CT_RTGcore_AT] (site AGTCTTACTTG) (LTG core: CT, RTG core: AT)”, the “recombinant barcode read abundance (log10)” value is 0.144.
Next, “AGTCTTACTTGGGTTCTAACCTGTTGCCACC [AGTCTTACTTG_LTGcore_CT_RTGcore_GG] (site AGTCTTACTTG) (LTG core: CT, RTG core: GG)”: 0.0199; “AGTCTTACTTGGGTTCTAACCTGTTGCCAGA [AGTCTTACTTG_LTGcore_CT_RTGcore_TC] (site AGTCTTACTTG) (LTG core: CT, RTG core: TC)”: 0.0445.
In the case of “AGTCTTACTTGGGTTCTAACCTGTTGCCATA [AGTCTTACTTG_LTGcore_CT_RTGcore_TA] (site AGTCTTACTTG) (LTG core: CT, RTG core: TA)”, the “recombinant barcode read abundance (log10)” value came to 0.136.
The value for “AGTCTTACTTGGGTTCTAACCTGTTGCCATC [AGTCTTACTTG_LTGcore_CT_RTGcore_GA] (site AGTCTTACTTG) (LTG core: CT, RTG core: GA)” was 0.155; that for “AGTCTTACTTGGGTTCTAACCTGTTGCCATT [AGTCTTACTTG_LTGcore_CT_RTGcore_AA] (site AGTCTTACTTG) (LTG core: CT, RTG core: AA)” was 0.196.
With “AGTCTTAGCTGGGTTCTAACCTGTTGCCAGC [AGTCTTACTTG_LTGcore_GC_RTGcore_GC] (site AGTCTTACTTG) (LTG core: GC, RTG core: GC)”, the “recombinant barcode read abundance (log10)” value is 0.197.
With “AGTCTTAGGTGGGTTCTAACCTGTTGCCACC [AGTCTTACTTG_LTGcore_GG_RTGcore_GG] (site AGTCTTACTTG) (LTG core: GG, RTG core: GG)”, the “recombinant barcode read abundance (log10)” value worked out at 0.274.
In the case of “AGTCTTATATGGGTTCTAACCTGTTGCCATA [AGTCTTACTTG_LTGcore_TA_RTGcore_TA] (site AGTCTTACTTG) (LTG core: TA, RTG core: TA)”, the “recombinant barcode read abundance (log10)” value is 0.153.
Turning to “AGTCTTATTTGGGTTCTAACCTGTTGCCAAG [AGTCTTACTTG_LTGcore_TT_RTGcore_CT] (site AGTCTTACTTG) (LTG core: TT, RTG core: CT)”, the “recombinant barcode read abundance (log10)” value was 0.137.
Next, “ATGCTTTAGTGGGTTCTAACCTGTTGCCTAG [ATGCTTTCTAG_LTGcore_AG_RTGcore_CT] (site ATGCTTTCTAG) (LTG core: AG, RTG core: CT)”: 0.0782.
Next, “ATGCTTTCCTGGGTTCTAACCTGTTGCCTAG [ATGCTTTCTAG_LTGcore_CC_RTGcore_CT] (site ATGCTTTCTAG) (LTG core: CC, RTG core: CT)”: 0.0734.
Next, “ATGCTTTCCTGGGTTCTAACCTGTTGCCTGG [ATGCTTTCTAG_LTGcore_CC_RTGcore_CC] (site ATGCTTTCTAG) (LTG core: CC, RTG core: CC)”: 0.0978; “ATGCTTTCGTGGGTTCTAACCTGTTGCCTAG [ATGCTTTCTAG_LTGcore_CG_RTGcore_CT] (site ATGCTTTCTAG) (LTG core: CG, RTG core: CT)”: 0.0216; “ATGCTTTCTTGGGTTCTAACCTGTTGCCTAC [ATGCTTTCTAG_LTGcore_CT_RTGcore_GT] (site ATGCTTTCTAG) (LTG core: CT, RTG core: GT)”: 0.191.
On to “ATGCTTTCTTGGGTTCTAACCTGTTGCCTTG [ATGCTTTCTAG_LTGcore_CT_RTGcore_CA] (site ATGCTTTCTAG) (LTG core: CT, RTG core: CA)”, for which the “recombinant barcode read abundance (log10)” value was 0.0598.
The value for “ATGCTTTGATGGGTTCTAACCTGTTGCCTAG [ATGCTTTCTAG_LTGcore_GA_RTGcore_CT] (site ATGCTTTCTAG) (LTG core: GA, RTG core: CT)” was 0.229.
The value for “ATGCTTTGATGGGTTCTAACCTGTTGCCTTC [ATGCTTTCTAG_LTGcore_GA_RTGcore_GA] (site ATGCTTTCTAG) (LTG core: GA, RTG core: GA)” was 0.0368.
Consider “ATGCTTTGCTGGGTTCTAACCTGTTGCCTGC [ATGCTTTCTAG_LTGcore_GC_RTGcore_GC] (site ATGCTTTCTAG) (LTG core: GC, RTG core: GC)”, for which the “recombinant barcode read abundance (log10)” value came to 0.0848.
Next, “ATGCTTTTATGGGTTCTAACCTGTTGCCTAG [ATGCTTTCTAG_LTGcore_TA_RTGcore_CT] (site ATGCTTTCTAG) (LTG core: TA, RTG core: CT)”: 0.238.
In the case of “ATGCTTTTATGGGTTCTAACCTGTTGCCTTA [ATGCTTTCTAG_LTGcore_TA_RTGcore_TA] (site ATGCTTTCTAG) (LTG core: TA, RTG core: TA)”, the “recombinant barcode read abundance (log10)” value is 0.232.
The value for “ATGCTTTTGTGGGTTCTAACCTGTTGCCTAG [ATGCTTTCTAG_LTGcore_TG_RTGcore_CT] (site ATGCTTTCTAG) (LTG core: TG, RTG core: CT)” was 0.0287.
The value for “ATGCTTTTTTGGGTTCTAACCTGTTGCCTAA [ATGCTTTCTAG_LTGcore_TT_RTGcore_TT] (site ATGCTTTCTAG) (LTG core: TT, RTG core: TT)” was 0.0151.
On to “ATGTCCCAGTGGGTTCTAACCTGTTGCTCCT [ATGTCCCCTGA_LTGcore_AG_RTGcore_AG] (site ATGTCCCCTGA) (LTG core: AG, RTG core: AG)”, for which the “recombinant barcode read abundance (log10)” value is 0.0318.
With “ATGTCCCCGTGGGTTCTAACCTGTTGCTCCG [ATGTCCCCTGA_LTGcore_CG_RTGcore_CG] (site ATGTCCCCTGA) (LTG core: CG, RTG core: CG)”, the “recombinant barcode read abundance (log10)” value worked out at 0.163.
The value for “ATGTCCCCTTGGGTTCTAACCTGTTGCTCAC [ATGTCCCCTGA_LTGcore_CT_RTGcore_GT] (site ATGTCCCCTGA) (LTG core: CT, RTG core: GT)” was 0.0456; that for “ATGTCCCCTTGGGTTCTAACCTGTTGCTCCA [ATGTCCCCTGA_LTGcore_CT_RTGcore_TG] (site ATGTCCCCTGA) (LTG core: CT, RTG core: TG)” was 0.0151; that for “ATGTCCCCTTGGGTTCTAACCTGTTGCTCCT [ATGTCCCCTGA_LTGcore_CT_RTGcore_AG] (site ATGTCCCCTGA) (LTG core: CT, RTG core: AG)” was 0.205.
The value for “ATGTCCCCTTGGGTTCTAACCTGTTGCTCTG [ATGTCCCCTGA_LTGcore_CT_RTGcore_CA] (site ATGTCCCCTGA) (LTG core: CT, RTG core: CA)” was 0.00868.
On to “ATGTCCCGCTGGGTTCTAACCTGTTGCTCAG [ATGTCCCCTGA_LTGcore_GC_RTGcore_CT] (site ATGTCCCCTGA) (LTG core: GC, RTG core: CT)”, for which the “recombinant barcode read abundance (log10)” value was determined as 0.
